Values after ≈ are worked out from the molar mass of the structure shown.
Key:
[1] = Water-solubility of substance C in propolis extract (supernatant concentration); assay type: physicochemical
Procedure: The sample in Experiment 1 was mixed with an equal amount of 50 v/v % aqueous ethanol solution either with or without an adequate amount of sodium hydroxide, and the mixture with a pH 5.0 was adjusted to a pH of 5.2, 5.5, 5.8, 6.0, 6.2, 6.4, 6.8, 7.0, 7.2, 7.5 or 8.1 before prepared into an about 10 w/w % liquid propolis extract, d.s.b., as samples used in the following experiments.
After one-month standing at 25° C., the samples were tested similarly as in Experiments 2-(1) to 2-(4) and subjected to a sensory evaluation using 12 panels.

[2] = Confirmation of insolubilized substance C (HPLC of supernatant after 101-fold dilution); assay type: physicochemical
Description: A propolis mass was disrupted, injected into 3 columns and fed with 50 v/v % aqueous ethanol solution by counter-current extraction method to dissolve and extract the effective ingredients of propolis. The extract was filtered to obtain a liquid propolis extract containing about 20 w/w % dry solid in a yield of about 30% of the material propolis, d.s.b.
The pH of the sample was 5.0 when measured with a pH-meter. The sample was placed in a beaker and diluted with water by 101-fold into a dilute aqueous ethanol solution in the form of a white suspension which was then allowed to stand at 25° C. for an hour under gentle stirring conditions and centrifuged to obtain a supernatant. High-performance liquid chromatography (HPLC) was used to quantify the concentration of substance C in the supernatant according to the method as described in Bioscience, Biotechnology, and Biochemistry, Vol. 58, No. 5, pp. 945-946 (1994). As a control, the sample was diluted by 101-fold with ethanol in place of water.

improvement of solubility of substance C in dilute aqueous ethanol solution ([1]; pH increased from about 5.0 to 5.5-7.0): 15-100 folds | Concentration of substance C in water dilution relative to control diluted with ethanol ([2]; 101-fold dilution): 0.06% | solubility kinetic ([2]; dilute aqueous ethanol, organic solvent or mixture, 25° C., pH about 5.0 extract, 10 w/w % d.s.b. in 50 v/v % aqueous ethanol, diluted with water by about 100 folds, read-out: Concentration in which substance C dissolves in dilute aqueous ethanol solution): 0.03 µg/mL (≈ 0.0999 µM) | Concentration of substance C in supernatant of dilution diluted with ethanol (Control) ([2]; diluted with ethanol by 101-fold, control): 46.7 ppm | Solubilization of substance C on dilution with water (in words) ([2]; dilution with water into dilute aqueous ethanol solution): insolubilized most of substance C | Amount of substance C of the sample contained in sediments collected by centrifugation ([2]; sediments dissolved in ethanol, after dilution with water): at least 99%
SMILES: CC(C)=CCc1cc(C=CC(=O)O)cc(CC=C(C)C)c1O [substance C, 3-[4-hydroxy-3,5-bis(3-methyl-2-butenyl)phenyl]-2-propenoic acid]
Water-solubility of substance C (in words) ([1]; pH dependence): greatly increased when adjusted to a pH of over 5.5
